# Residue numbers refer to the chain shown, from its start. “And” between values parts separate entries of the source, which are not always exact repeats. Equal values may be shown once.
# Columns and labels:
# [1] = molecular target: T1, hTA1 b2N (Homo sapiens, UniProt Q96RJ0); assay: GloSensor cAMP accumulation assay, b2N construct; format: cell-based; details: b2N, n=2
# T1 construct: read by me as the first 25 residues of β2AR (N); expressed in transfected cells; host or cells: HEK293T
# [2] = molecular target: T2, hTA1 C88/178S (Homo sapiens, UniProt Q96RJ0, C178S/C88S); assay: GloSensor cAMP accumulation assay, C88S/C178S double mutant; format: cell-based; details: for Normalized Luminescence Counts (N=2): log[Compound], single replicate values
# T2 construct: expressed in transfected cells; host or cells: HEK293T
# T2 sequence (Q96RJ0 1-339 C88S/C178S): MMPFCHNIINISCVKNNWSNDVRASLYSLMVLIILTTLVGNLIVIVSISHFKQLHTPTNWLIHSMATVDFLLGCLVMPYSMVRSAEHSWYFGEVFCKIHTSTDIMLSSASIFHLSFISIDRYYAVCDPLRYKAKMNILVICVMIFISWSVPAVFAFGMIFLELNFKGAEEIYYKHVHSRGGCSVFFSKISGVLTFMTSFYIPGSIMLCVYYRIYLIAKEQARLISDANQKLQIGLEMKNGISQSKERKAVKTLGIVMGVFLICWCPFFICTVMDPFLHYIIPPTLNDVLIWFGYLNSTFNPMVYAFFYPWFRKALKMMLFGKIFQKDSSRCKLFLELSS
# [3] = molecular target: T3, hTA1 C178S (Homo sapiens, UniProt Q96RJ0, C178S); assay: GloSensor cAMP accumulation assay, C178S mutant; format: cell-based; details: for C178S - Normalized Luminescence Counts (N=2): log[Compound], single replicates
# T3 construct: expressed in transfected cells; host or cells: HEK293T
# T3 sequence (Q96RJ0 1-339 C178S): T2 sequence (Q96RJ0 1-339 C88S/C178S) with S88C
# [4] = molecular target: T4, hTA1 T194A (Homo sapiens, UniProt Q96RJ0, T194A); assay: GloSensor cAMP accumulation assay, T194A mutant
# T4 sequence (Q96RJ0 1-339 T194A): T2 sequence (Q96RJ0 1-339 C88S/C178S) with S88C, S178C, T194A
# [5] = molecular target: T5, hTA1 W264F (Homo sapiens, UniProt Q96RJ0, W264F); assay: GloSensor cAMP accumulation assay, W264F mutant; format: cell-based;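 further: cells transiently transfected with receptor plus GloSensor, luminescence read 30 min after agonist addition at room temperature, concentration-response curves fitted by log(agonist) vs response regression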
# T5 construct: expressed in transfected cells; host or cells: HEK293T
# T5 sequence (Q96RJ0 1-339 W264F): T2 sequence (Q96RJ0 1-339 C88S/C178S) with S88C, S178C, W264F
# [6] = C88S, C178S, each row is one independent experiment, 3 replicates
# [7] = C178S, each row one experiment (N=2), 3 replicates
# T1 sequence (Q96RJ0 with tags, fused parts or gaps): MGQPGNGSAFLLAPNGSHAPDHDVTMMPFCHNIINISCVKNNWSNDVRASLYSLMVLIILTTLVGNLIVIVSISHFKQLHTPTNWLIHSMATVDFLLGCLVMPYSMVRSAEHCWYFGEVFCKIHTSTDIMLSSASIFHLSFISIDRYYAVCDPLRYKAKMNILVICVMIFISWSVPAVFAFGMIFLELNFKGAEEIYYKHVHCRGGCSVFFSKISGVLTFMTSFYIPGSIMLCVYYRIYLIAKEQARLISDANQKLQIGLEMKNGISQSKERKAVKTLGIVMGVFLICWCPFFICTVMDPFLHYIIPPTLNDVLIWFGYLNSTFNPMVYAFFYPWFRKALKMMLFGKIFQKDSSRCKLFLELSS
smiles,measurement,setting,value
Cc1c(F)cccc1[C@H]1COC(N)=N1 [Ro5263397],Span ± SEM (Emax normalized to β-PEA),[1],78.31 ± 9.88
same,pEC50 ± SEM,[1],9.18 ± 0.09
same,EC50,[1]; read-out: EC50,0.66 nM
same,Span ± SEM (Emax normalized to β-PEA),"[2]; C88/178S, n=2",98.55 ± 7.35
same,pEC50 ± SEM,"[2]; C88/178S, n=2",8.59 ± 0.09
same,EC50,"[2]; C88/178S, n=2, read-out: EC50",2.55 nM
same,"pEC50 values, Mean",[2]; [6],8.403 and 8.782
same,"ΔEmax values (each mutant value - WT average), Mean",[2]; [6],4.495 and 19.1933
same,"ΔpEC50 values (each mutant value - WT average), Mean",[2]; [6],-0.428 and -0.04873
same,Normalized Luminescence Counts (N=2),"[2]; C88S, C178S, M = -5",100.242 and 99.2245 and 97.2457 and 143.648 and 172.345 and 97.883
same,Normalized Luminescence Counts (N=2),"[2]; C88S, C178S, M = -5.522",90.9136 and 85.0903 and 89.8394 and 123.862 and 148.33 and 92.2945
same,Normalized Luminescence Counts (N=2),"[2]; C88S, C178S, M = -6",90.1221 and 88.8217 and 95.4931 and 103.622 and 111.174 and 99.9975
same,Normalized Luminescence Counts (N=2),"[2]; C88S, C178S, M = -6.522",99.5072 and 94.7581 and 94.2493 and 122.049 and 117.367 and 101.508
same,Normalized Luminescence Counts (N=2),"[2]; C88S, C178S, M = -7",91.3094 and 97.4719 and 93.062 and 116.159 and 110.872 and 102.263
same,Normalized Luminescence Counts (N=2),"[2]; C88S, C178S, M = -7.522",83.1115 and 82.2069 and 77.6274 and 88.2165 and 117.82 and 93.3518
same,Normalized Luminescence Counts (N=2),"[2]; C88S, C178S, M = -8",58.8572 and 57.8961 and 57.8396 and 93.8049 and 106.945 and 88.8206
same,Normalized Luminescence Counts (N=2),"[2]; C88S, C178S, M = -8.522",53.4862 and 36.4686 and 47.8325 and 84.7426 and 92.7477 and 67.222
same,Normalized Luminescence Counts (N=2),"[2]; C88S, C178S, M = -9",25.2178 and 28.61 and 25.7832 and 45.3213 and 51.816 and 46.9828
same,Normalized Luminescence Counts (N=2),"[2]; C88S, C178S, M = -9.522",8.822 and 11.8186 and 9.84 and 21.1551 and 21.4571 and 31.5768
same,Normalized Luminescence Counts (N=2),"[2]; C88S, C178S, M = -10",5.826 and 5.4299 (2×) and 35.5038 (2×) and 37.3163
same,Normalized Luminescence Counts (N=2),"[2]; C88S, C178S, M = -10.522",1.755 and 2.038 and 3.395 and 3.6345 and 2.124 and 3.483
same,Normalized Luminescence Counts (N=2),"[2]; C88S, C178S, M = -11",2.49 and 1.529 and 1.585 and 16.4728 and 32.9361 and 27.0456
same,Normalized Luminescence Counts (N=2),"[2]; C88S, C178S, M = -11.522",0.5677 and 1.529 and 0.7373 and 0.9158 and 1.369 and 1.973
same,Normalized Luminescence Counts (N=2),"[2]; C88S, C178S, M = -12",0.7939 and 1.472 and 1.1331 and 4.692 and 7.713 and 6.504
same,Normalized Luminescence Counts (N=2),"[2]; C88S, C178S, M = -12.522",1.698 and 0.6243 and 0.7373 and -0.4436 and 0.7648 and -1.803
same,"Emax values, Mean","[2]; C88S, C178S, normalized (β-PEA = 100), each row is one independent experiment, 3 replicates",91.1984 and 105.897
same,"pEC50 values, Mean",[3]; [7],8.162 and 8.579
same,"ΔpEC50 values (each mutant value - WT average), Mean",[3]; [7],-0.6693 and -0.2522
same,Span ± SEM (Emax normalized to β-PEA),"[3]; C178S, n=2",105.17
same,pEC50 ± SEM,"[3]; C178S, n=2",8.37 ± 0.09
same,EC50,"[3]; C178S, n=2, read-out: EC50",4.26 nM
same,Emax,"[3]; C178S, relative to β-PEA",105.2%
same,"Emax values, Mean","[3]; C178S, β-PEA = 100, each row one experiment (N=2), 3 replicates",92.0056 and 118.332
same,C178S - Normalized Luminescence Counts (N=2),[3]; M = -5,116.512 and 98.9884 and 102.82 and 110.453 and 111.171 and 57.8292
same,C178S - Normalized Luminescence Counts (N=2),[3]; M = -5.522,90.6706 and 92.2127 and 73.4274 and 137.917 and 164.274 and 131.185
same,C178S - Normalized Luminescence Counts (N=2),[3]; M = -6,100.344 and 93.0071 and 81.792 and 122.18 and 154.88 and 155.328
same,C178S - Normalized Luminescence Counts (N=2),[3]; M = -6.522,92.3996 and 91.979 and 98.7081 and 121.313 and 114.761 and 110.333
same,C178S - Normalized Luminescence Counts (N=2),[3]; M = -7,78.9882 and 76.0443 and 77.119 and 120.565 and 138.096 and 118.74
same,C178S - Normalized Luminescence Counts (N=2),[3]; M = -7.522,86.6519 and 72.9134 and 81.9322 and 98.8752 and 109.017 and 95.5544
same,C178S - Normalized Luminescence Counts (N=2),[3]; M = -8,48.9411 and 58.2403 and 50.0626 and 103.512 and 85.5323 and 112.428
same,C178S - Normalized Luminescence Counts (N=2),[3]; M = -8.522,29.268 and 30.1559 and 35.3428 and 67.4924 and 67.6121 and 48.0464
same,C178S - Normalized Luminescence Counts (N=2),[3]; M = -9,15.623 and 14.3146 and 15.5763 and 45.7428 and 46.9395 and 50.4398
same,C178S - Normalized Luminescence Counts (N=2),[3]; M = -9.522,4.128 and 7.025 and 6.23 and 17.8303 and 18.7278 and 23.3949
same,C178S - Normalized Luminescence Counts (N=2),[3]; M = -10,3.707 (2×) and 2.258 and 5.325 and 8.915 and 9.424
same,C178S - Normalized Luminescence Counts (N=2),[3]; M = -10.522,1.885 and 0.4359 and 0.8097 and 2.513 and 2.752 and 5.684
same,C178S - Normalized Luminescence Counts (N=2),[3]; M = -11,0.4826 and 1.043 and -0.5921 and 4.667 and 6.223 and 4.577
same,C178S - Normalized Luminescence Counts (N=2),[3]; M = -11.522,0.9967 and 0.3892 and 0.01533 and 3.919 and 5.445 and 4.457
same,C178S - Normalized Luminescence Counts (N=2),[3]; M = -12,2.258 and 1.511 (2×) and 2.7223 and 4.936 and 4.158
same,C178S - Normalized Luminescence Counts (N=2),[3]; M = -12.522,0.1555 and 0.7163 and 0.9032 and 5.3849 and 3.7993 and 4.607
same,"ΔpEC50 values (each mutant value - WT average), Mean",[4]; T149A (so in the source) minus WT average,-1.583 and -1.53 and -1.429
same,"pEC50 values, Mean","[4]; T149A (so in the source), single experiments (3 replicates each)",7.248 and 7.301 and 7.402
same,"Emax values, Mean","[4]; T149A (so in the source), single experiments (3 replicates each), β-PEA = 100",143.384 and 86.8999 and 99.8921
same,EC50,[4]; T194A,56.4 nM
same,Span ± SEM (Emax normalized to β-PEA),[4]; T194A,110.06
same,pEC50 ± SEM,[4]; T194A,7.32 ± 0.14
same,reduction in potency vs wild type,[4]; T194A,over 30 fold
same,ΔEmax values (each mutant value - WT average),[5]; W246F mutant (so in the source) minus WT average,-34.1318
same,"pEC50 values, Mean","[5]; W246F mutant (so in the source), each line an independent experiment, 3 replicates",5.605 and 5.96
same,"Emax values, Mean","[5]; W246F mutant (so in the source), β-PEA = 100, each line an independent experiment, 3 replicates",52.5716 and 62.1592
same,decrease in potency vs wild type,[5]; W264F,more than 1000 fold
same,Span ± SEM (Emax normalized to β-PEA),"[5]; W264F, n=2",57.37 ± 4.79
same,pEC50 ± SEM,"[5]; W264F, n=2",5.78 ± 0.06

# — publication PMC10762035, “Molecular basis of human trace amine-associated receptor 1 activation” (Nature Communications, 2024)
